Results taken from ChEMBL document CHEMBL5303573, “Mapping human microbiome drug metabolism by gut bacteria and their genes” (Nature, 2019).

Columns and labels:
[1] = The drug is tested on Eggerthella lenta strain: ATCC25559 for biotransformation. The drug concentrations were measured before and after a 12-h incubation by liquid-chromatography-coupled mass spectrometry (LC–MS); settings: 2 µM
[2] = bacteroides fragilis, 12 h, 2 µM
Description: The drug is tested on Bacteroides fragilis strain: NCTC 9343 for biotransformation. The drug concentrations were measured before and after a 12-h incubation by liquid-chromatography-coupled mass spectrometry (LC–MS)

[3] = The drug is tested on Bacteroides sp. WH2 strain: WH2 for biotransformation. The drug concentrations were measured before and after a 12-h incubation by liquid-chromatography-coupled mass spectrometry (LC–MS); settings: bacteroides sp. wh2, 12 h, 2 µM
[4] = The drug is tested on Subdoligranulum variabile strain: DSM15176 for biotransformation. The drug concentrations were measured before and after a 12-h incubation by liquid-chromatography-coupled mass spectrometry (LC–MS); settings: 2 µM
[5] = anaerostipes sp., 12 h, 2 µM
Description: The drug is tested on Anaerostipes sp. strain: fecal isolate for biotransformation. The drug concentrations were measured before and after a 12-h incubation by liquid-chromatography-coupled mass spectrometry (LC–MS)

[6] = The drug is tested on Clostridium symbiosum strain: ATCC14940 for biotransformation. The drug concentrations were measured before and after a 12-h incubation by liquid-chromatography-coupled mass spectrometry (LC–MS); settings: 2 µM
[7] = victivallis vadensis, 12 h, 2 µM
Description: The drug is tested on Victivallis vadensis strain: ATCC BAA-548 for biotransformation. The drug concentrations were measured before and after a 12-h incubation by liquid-chromatography-coupled mass spectrometry (LC–MS)

Row | SMILES | Bacterial Biotransformation [1] | Bacterial Biotransformation [2] | Bacterial Biotransformation [3] | Bacterial Biotransformation [4] | Bacterial Biotransformation [5] | Bacterial Biotransformation [6] | Bacterial Biotransformation [7]
1 | CN(C)CC(c1ccc(O)cc1)C1(O)CCCCC1.O=C(O)CCC(=O)O (stereo not drawn) [DESVENLAFAXINE SUCCINATE] | Compound NOT metabolized | Compound NOT metabolized | Compound NOT metabolized | Compound NOT metabolized | Compound NOT metabolized | Compound NOT metabolized | 
2 | NC(=O)N1c2ccccc2CC(=O)c2ccccc21 [OXCARBAZEPINE] | Compound metabolized | Compound NOT metabolized | Compound NOT metabolized | Compound NOT metabolized | Compound NOT metabolized | Compound metabolized | Compound NOT metabolized
3 | COc1ccccc1OCC(O)COC(N)=O (stereo not drawn) [METHOCARBAMOL] | Compound NOT metabolized | Compound NOT metabolized | Compound NOT metabolized | Compound NOT metabolized | Compound NOT metabolized | Compound NOT metabolized | Compound NOT metabolized
4 | COc1cc2nc(N3CCN(C(=O)C4COc5ccccc5O4)CC3)nc(N)c2cc1OC.CS(=O)(=O)O (stereo not drawn) [DOXAZOSIN MESYLATE] |  | Compound NOT metabolized | Compound NOT metabolized | Compound NOT metabolized |  | Compound NOT metabolized | Compound NOT metabolized
5 | CN(C)CCOC(C)(c1ccccc1)c1ccccn1.O=C(O)CCC(=O)O (stereo not drawn) [DOXYLAMINE SUCCINATE] |  | Compound NOT metabolized | Compound NOT metabolized | Compound NOT metabolized | Compound NOT metabolized | Compound NOT metabolized | Compound NOT metabolized
6 | CO[C@]12C[C@@H](COC(=O)c3cncc(Br)c3)CN(C)[C@@H]1Cc1cn(C)c3cccc2c13 [NICERGOLINE] | Compound NOT metabolized | Compound NOT metabolized | Compound NOT metabolized | Compound NOT metabolized | Compound NOT metabolized | Compound NOT metabolized | Compound NOT metabolized
7 | CC(CCc1ccccc1)NCC(O)c1ccc(O)c(C(N)=O)c1 (stereo not drawn) [LABETALOL] | Compound NOT metabolized | Compound NOT metabolized | Compound NOT metabolized | Compound NOT metabolized | Compound NOT metabolized | Compound NOT metabolized | 
8 | CCN(CC)CC#CCOC(=O)C(O)(c1ccccc1)C1CCCCC1.Cl (stereo not drawn) [OXYBUTYNIN CHLORIDE] | Compound NOT metabolized |  | Compound NOT metabolized | Compound NOT metabolized | Compound NOT metabolized | Compound metabolized | Compound NOT metabolized
9 | C=CCN1CC[C@]23c4c5ccc(O)c4O[C@H]2C(=O)CC[C@@]3(O)[C@H]1C5 [NALOXONE] | Compound metabolized | Compound metabolized | Compound NOT metabolized | Compound NOT metabolized | Compound NOT metabolized |  | Compound NOT metabolized
10 | CCN(CC)CCNC(=O)c1cc(Cl)c(N)cc1OC [METOCLOPRAMIDE] | Compound NOT metabolized | Compound NOT metabolized | Compound NOT metabolized | Compound NOT metabolized | Compound NOT metabolized | Compound NOT metabolized | 
11 | COc1ccccc1N1CCN(CC(O)COc2cccc3ccccc23)CC1 (stereo not drawn) [NAFTOPIDIL] | Compound NOT metabolized | Compound NOT metabolized | Compound NOT metabolized | Compound NOT metabolized | Compound NOT metabolized | Compound NOT metabolized | 
12 | N#Cc1ccc(C(c2ccc(C#N)cc2)n2cncn2)cc1 [LETROZOLE] |  | Compound NOT metabolized | Compound NOT metabolized | Compound NOT metabolized | Compound NOT metabolized | Compound NOT metabolized | Compound NOT metabolized
13 | CCOC(=O)[C@H](CCc1ccccc1)N[C@@H](C)C(=O)N1CCC[C@H]1C(=O)O.O=C(O)/C=C\C(=O)O [ENALAPRIL MALEATE] |  | Compound NOT metabolized | Compound NOT metabolized | Compound NOT metabolized | Compound NOT metabolized | Compound NOT metabolized | Compound NOT metabolized
14 | CC(C)(C)NC(=O)[C@H]1CC[C@H]2[C@@H]3CC[C@H]4NC(=O)C=C[C@]4(C)[C@H]3CC[C@]12C [FINASTERIDE] |  | Compound metabolized | Compound NOT metabolized |  | Compound NOT metabolized | Compound NOT metabolized | Compound NOT metabolized
15 | OCCN1CCN(CCCN2c3ccccc3Sc3ccc(C(F)(F)F)cc32)CC1 [FLUPHENAZINE] | Compound NOT metabolized | Compound metabolized | Compound NOT metabolized | Compound NOT metabolized | Compound metabolized |  | Compound NOT metabolized
16 | CN(C(=O)CN(CCO)CC(=O)N(C)C(C)(C)Cc1ccccc1)C(C)(C)Cc1ccccc1 [OXETHAZAINE] | Compound NOT metabolized |  | Compound NOT metabolized | Compound NOT metabolized | Compound NOT metabolized | Compound NOT metabolized | Compound NOT metabolized
17 | CCN(CC)CCOC(=O)C(Cc1cccc2ccccc12)CC1CCCO1.O=C(O)C(=O)O (stereo not drawn) [NAFRONYL OXALATE] |  | Compound metabolized | Compound NOT metabolized |  | Compound NOT metabolized | Compound NOT metabolized | Compound NOT metabolized
18 | CN1CCC(=C2c3ccccc3CC(=O)c3sccc32)CC1.O=C(O)/C=C/C(=O)O [KETOTIFEN FUMARATE] | Compound NOT metabolized | Compound NOT metabolized | Compound NOT metabolized | Compound NOT metabolized | Compound NOT metabolized | Compound NOT metabolized | 
19 | CC1OC(OC2C(O)CC(OC3C(O)CC(OC4CCC5(C)C(CCC6C5CCC5(C)C(C7=CC(=O)OC7)CCC65O)C4)OC3C)OC2C)CC(O)C1O (stereo not drawn) |  | Compound NOT metabolized | Compound NOT metabolized | Compound NOT metabolized | Compound NOT metabolized | Compound NOT metabolized | Compound NOT metabolized
20 | Cc1cc2c(s1)Nc1ccccc1N=C2N1CCN(C)CC1 [OLANZAPINE] |  | Compound NOT metabolized |  | Compound NOT metabolized | Compound NOT metabolized | Compound NOT metabolized | Compound NOT metabolized
21 | CCC(C)n1ncn(-c2ccc(N3CCN(c4ccc(OCC5COC(Cn6cncn6)(c6ccc(Cl)cc6Cl)O5)cc4)CC3)cc2)c1=O (stereo not drawn) [ITRACONAZOLE] | Compound NOT metabolized | Compound NOT metabolized | Compound NOT metabolized |  | Compound NOT metabolized | Compound NOT metabolized | Compound NOT metabolized
22 | COc1ccc2c(c1)c(CC(=O)O)c(C)n2C(=O)c1ccc(Cl)cc1 [INDOMETHACIN] | Compound NOT metabolized | Compound metabolized | Compound metabolized |  | Compound metabolized | Compound metabolized | Compound NOT metabolized
23 | Cc1ccccc1N1C(=O)c2cc(S(N)(=O)=O)c(Cl)cc2NC1C (stereo not drawn) [METOLAZONE] |  | Compound NOT metabolized | Compound NOT metabolized |  | Compound NOT metabolized | Compound NOT metabolized | Compound NOT metabolized
24 | O=c1[nH]c2ccccc2n1CCCN1CCC(n2c(=O)[nH]c3cc(Cl)ccc32)CC1 [DOMPERIDONE] |  | Compound NOT metabolized | Compound NOT metabolized | Compound NOT metabolized | Compound NOT metabolized | Compound NOT metabolized | Compound NOT metabolized
25 | CCN(CC)CCOC(=O)C1(C2CCCCC2)CCCCC1 [DICYCLOMINE] | Compound metabolized | Compound NOT metabolized | Compound NOT metabolized |  | Compound NOT metabolized |  | Compound NOT metabolized
26 | Cc1cc2c(cc1S(N)(=O)=O)S(=O)(=O)CCC2 |  | Compound NOT metabolized | Compound NOT metabolized | Compound NOT metabolized | Compound NOT metabolized | Compound NOT metabolized | Compound NOT metabolized
